System: Caco-2 cells
Assay: apoA-I mediated 3H-cholesterol efflux from Caco-2 cells
Type: cell-based, human
Conditions: 24 h, 10 μg/ml apoA-I, mean and SEM of quadruplicate
Procedure: To assess the relevant biological activity of the LXR agonists, certain compounds were tested for their ability to increase cholesterol efflux from cultured human cells, as described by Sparrow et al., JBC volume 277, pages 10021–10027, Mar. 22, 2002. Caco-2 cells, which are of human origin, were obtained from ATCC and grown in Opti-MEM (Gibco #51985-034) containing 10% FCS, non-essential amino acids (Gibco #11140-050), and vitamins (Gibco # 11120-052). Caco-2 cells were plated at 100,000 cells/well in 48-well plates. After four days the cells had reached confluence, and were then labeled with ^3H-cholesterol by incubation for 24 hours in fresh growth media containing ^3H-cholesterol (10 μCi/ml). Following labeling with ^3H-cholesterol, cells were washed and incubated an additional 24 hours in serum-free media containing 1 mg/ml BSA, to allow for equilibration of ^3H-cholesterol with intracellular cholesterol. Cholesterol efflux was initiated by adding 10 μg/ml apoA-I, with or without compound, in serum-free medium. Compounds were added to cell culture medium from DMSO solutions, and control cells received an equivalent amount of DMSO, never exceeding 0.1%. After 24 hours, media were harvested and cells dissolved in 0.1 M NaOH. Media were briefly centrifuged to remove non-adherent cells, and then aliquots of both the supernatants and the dissolved cells were subjected to liquid scintillation spectrometry to determine radioactivity. Cholesterol efflux is expressed as a percentage, calculated as (^3H-cholesterol in medium/(^3H-cholesterol in medium+^3H-cholesterol in cells))×100.

Compound | % cholesterol efflux (compound concentration 1 nM) [%] | % cholesterol efflux (compound concentration 10 nM) [%] | % cholesterol efflux (compound concentration 100 nM) [%] | % cholesterol efflux (compound concentration 1000 nM) [%] | % cholesterol efflux (compound concentration 5000 nM) [%]
CCCc1c(OCCCN2C(=O)CSC2=O)ccc2c(C(F)(F)F)noc12 [Example 16, 3-(3-{[7-propyl-3-(trifluoromethyl)-1,2-benzisoxazol-6-yl]oxy}propyl)thiazolidine-2,4-dione] | 3.2 ± 0.3 | 4.0 ± 0.2 | 8.8 ± 0.7 | 10.3 ± 0.3 | 6.6 ± 0.4
CCCc1c(OCCCN2C(=O)NC(C)(c3ccccc3)C2=O)ccc2c(C(F)(F)F)noc12 (racemic) [Example 25, rac-5-methyl-5-phenyl-3-(3-{[7-propyl-3-(trifluoromethyl)-1,2-benzisoxazol-6-yl]oxy}propyl)imidazolidine-2,4-dione] | 3.4 ± 0.3 | 3.5 ± 0.09 | 4.5 ± 0.09 | 4.6 ± 0.09 | 5.2 ± 0.2

From US7125865B2, “Therapeutic compounds for treating dyslipidemic conditions” (Merck & Co., Inc., priority 2002, dated 2006)
